The record followed here is PubChem BioAssay AID1996.

For orientation: solubility (kinetic) means solubility judged after dilution from a stock solution rather than from solid.

In brackets after ≈: the same amount, converted by molar mass. Bounds are passed on as bounds.

For the data set the following is noted: buffer; pH 7.4; 200.0 µM.
With `Cn1c(CCNC(=O)c2ccco2)nc2cc([N+](=O)[O-])ccc21`, the solubility (kinetic) worked out at 43.1 µg/mL (≈ 137 µM).
`O=C(Nc1sc2c(c1C(=O)O)CCCC2)c1cccc(Cl)c1` yielded a kinetic solubility of 45.5 µg/mL (≈ 135 µM).
Regarding `CCOC(=O)c1sc(NC(=O)c2ccc(OC(C)=O)cc2)nc1C`, the solubility (kinetic) was 0.7 µg/mL (≈ 2.01 µM).
`CCOC(=O)C1(Cc2cccc(F)c2)CCN(C(=O)COC)CC1` showed a kinetic solubility of 47.2 µg/mL (≈ 140 µM).
`Cc1nc2cccc(C(=O)Oc3ccc([N+](=O)[O-])cc3)c2o1`: the solubility (kinetic) turned out to be 10.1 µg/mL (≈ 33.9 µM).
As for `Cc1cccc(Nc2cc(=O)n(C)c(=O)[nH]2)c1`, the figure is greater than 34.7 µg/mL; as for `COc1ccc(CCC(C)N2CCOCC2)cc1` (centres undefined), 31.9 µg/mL (≈ 128 µM); as for `O=C(OCC(=O)c1ccc[nH]1)c1ccc(Cl)c(Cl)c1`, 6.8 µg/mL (≈ 22.8 µM).
`Cl.Clc1cccc(CN2C3=NCCCN3c3ccccc32)c1` had a kinetic solubility greater than 50.1 µg/mL.
As for `CSc1nc(SCCN(C)C)c2c3c(sc2n1)COC(C)(C)C3`, the figure is 37.4 µg/mL (≈ 101 µM); as for `CC(=O)c1ccc(NC(=O)C[n+]2ccccc2)cc1.[Cl-]`, greater than 43.6 µg/mL.
For `CC(C)c1ccc(N(CC(=O)N2CCOCC2)S(C)(=O)=O)cc1`, the solubility (kinetic) was 32.9 µg/mL (≈ 96.6 µM).
As to `CC1CCCCC12NC(=O)N(CC(=O)NCCc1ccccc1)C2=O` (centres undefined), the solubility (kinetic) was greater than 51.5 µg/mL.
For the compound `C#CCOn1c(-n2nc(C)cc2C)nc2ccccc2c1=O`, the kinetic solubility was greater than 44.1 µg/mL.
The compound `COc1ccccc1NC(=O)c1ccccc1Oc1ccccc1` showed a solubility (kinetic) of less than 0.7 µg/mL.
The figure for `O=C(CN1C(=O)NC2(CCc3ccccc32)C1=O)Nc1cccc(Cl)c1` (centres undefined) is 54.2 µg/mL (≈ 147 µM); for `CC(NCc1cccnc1)c1ccccc1` (centres undefined) it is greater than 31.8 µg/mL.
The figure for `CCOc1ccc(CSCCNC(=S)Nc2ccc(OC)cc2)cc1` is 1.1 µg/mL (≈ 2.92 µM); for `CCCS(=O)(=O)C/C(N)=N/OC(=O)c1ccc(Cl)cc1` it is 34.3 µg/mL (≈ 108 µM).
`Nc1ccc(-c2cn3cccnc3n2)cc1`: the solubility (kinetic) was greater than 31.5 µg/mL.
As for `Cc1csc(NC(=O)CN2C(=O)COc3ccc(Cl)cc32)n1`, the figure is 2.1 µg/mL (≈ 6.22 µM); as for `CCCCC(=O)Nc1cc(C)c(NC(=O)c2ccco2)cn1`, greater than 45.2 µg/mL.
As for `O=C(Nc1cc(Cl)cc(Cl)c1)c1ccno1`, the figure is 8.4 µg/mL (≈ 32.7 µM); as for `CC1(C)CC(NC(=O)Cc2ccccc2)CC(C)(C)N1.Cl`, greater than 46.6 µg/mL.
As for `COc1ccc(N2C(=O)C3CCCN3C2=S)cc1` (centres undefined), the solubility (kinetic) was greater than 39.3 µg/mL.
As for `CN(Cc1ccccc1)C(=O)CC(=O)N(C)Cc1ccccc1`, the figure is greater than 46.6 µg/mL; as for `COc1ccc(-c2noc(CCC(=O)Nc3cccnc3)n2)cc1`, 3.8 µg/mL (≈ 11.7 µM); as for `COc1ccc(-c2noc(-c3ccoc3C)n2)cc1OC`, 0.8 µg/mL (≈ 2.79 µM).
Take `O=[N+]([O-])c1ccc2c(c1)nc1n2CCSC1`: the kinetic solubility was greater than 35.3 µg/mL.
Regarding `CCOc1ccc(N(C)Cc2cc(=O)oc3ccc(OC)cc23)cc1`, the kinetic solubility is 8.1 µg/mL (≈ 23.9 µM).
On to `O=C(NCc1ccncc1)c1cc(F)c(F)cc1Cl`, for which the kinetic solubility was greater than 42.4 µg/mL.
`COC(=O)/C=C/c1c(C)nc(NCc2ccccc2)nc1Cl` displayed a kinetic solubility greater than 47.7 µg/mL.
For the compound `Cc1ccccc1NC(=O)c1cccc(S(=O)(=O)Nc2cccc(C(=O)O)c2)c1`, the kinetic solubility amounted to 34.6 µg/mL (≈ 84.3 µM).
The compound `CC(=O)NCCc1nc2cc(NC(=O)c3ccccc3)ccc2n1C` yielded a solubility (kinetic) greater than 50.5 µg/mL.
Compound `CC(=O)c1ccc(NC(=S)Nc2ccc3[nH]c(=O)[nH]c3c2)cc1` yielded a kinetic solubility of 5.6 µg/mL (≈ 17.2 µM).
Turning to `CC(=O)Oc1ccc2oc(-c3ccccc3)c(C(N)=O)c2c1`, the kinetic solubility came to 1.4 µg/mL (≈ 4.74 µM).
On to `CCOc1ccc(OCCn2c(=S)[nH]c3c(N)ncnc32)cc1`, for which the solubility (kinetic) came out at 20.1 µg/mL (≈ 60.7 µM).
`Cc1cccc(C(=O)OCC(=O)N2CCN(C(=O)c3ccco3)CC2)c1O`: the kinetic solubility was determined as 38.8 µg/mL (≈ 104 µM).
`COC(=O)[C@@H](NC(=O)NCCC1=CCCCC1)C(C)C` registered a solubility (kinetic) greater than 42.4 µg/mL.
Regarding `CCOC(=O)c1cnc(C(F)(F)F)nc1Oc1ccccc1`, the solubility (kinetic) amounted to 11.7 µg/mL (≈ 37.5 µM).
In the case of `CN1CCC(N(CCc2ccccc2)C(=O)CCC(=O)O)CC1`, the kinetic solubility is greater than 47.8 µg/mL.
Turning to `COc1ccc(NS(=O)(=O)c2cc(N)ccc2N2CCOCC2)cc1`, the solubility (kinetic) turned out to be 13.2 µg/mL (≈ 36.3 µM).
With `CC(NC(=O)COC(=O)CCC(=O)c1ccc(F)cc1)c1ccccc1` (centres undefined), the kinetic solubility was greater than 53.6 µg/mL.
`COc1c(S(=O)(=O)Nc2cccnc2)ccc(Cl)c1Cl` came in with a kinetic solubility of 30.8 µg/mL (≈ 92.4 µM).
For the compound `CCOc1ccc(N/C=C/C(=O)c2ccc(OC)cc2)cc1`, the solubility (kinetic) is less than 0.6 µg/mL.
Consider `Cc1cc(C)c(C#N)c(OCC(=O)Nc2ccccc2)n1`, for which the kinetic solubility came out at 31.7 µg/mL (≈ 113 µM).
With `O=c1c2cc(Br)ccc2nc(-c2ccccc2)n1O`, the kinetic solubility worked out at 39.4 µg/mL (≈ 124 µM). This solubility kinetic and that of the compound before are within 1.5-fold of each other.
As for `O=C(Nc1ccccc1)c1ccccc1NC(=O)c1ccccc1[N+](=O)[O-]`, the figure is 7.5 µg/mL (≈ 20.8 µM).
For `O=[N+]([O-])c1ccc(Cl)c(CN2CCCCCC2)c1`, the solubility (kinetic) worked out at 13.8 µg/mL (≈ 51.3 µM).
The compound `CCCNC(=O)C(=O)NCC1CCCN1CC` (centres undefined) had a kinetic solubility of 36 µg/mL (≈ 149 µM).
As for `CC1(C)CC(=O)C2=C(C1)OC(N)=C(C#N)C2c1ccc[nH]1` (centres undefined), the figure is greater than 42.5 µg/mL.
The figure for `CC(C)(C)CC(=O)NCCc1csc(-c2ccccc2)n1` is greater than 45.4 µg/mL.
In turn, `O=C(Cc1ccccc1)N1CCN(c2ccccc2F)CC1` registered a solubility (kinetic) greater than 44.8 µg/mL.
`O=C(Nc1ccc(F)cc1)c1cccc(N2C(=O)c3ccccc3C2=O)c1`: the solubility (kinetic) is 0.7 µg/mL (≈ 1.94 µM).
Regarding `COc1ccc(CN(C)C(=O)c2sccc2-c2ccccc2)c(OC)c1`, the solubility (kinetic) was found to be 12 µg/mL (≈ 32.7 µM).
As for `O=C(N/N=C/c1ccncc1)NC1CCCCC1`, the figure is greater than 36.9 µg/mL.
As for `N[C@@H](Cc1ccc(O)cc1)C(=O)Nc1ccc2ccccc2c1`, the figure is greater than 46 µg/mL; as for `COc1ccc(C(=O)N2CCN(c3ncccn3)CC2)cc1[N+](=O)[O-]`, 50.5 µg/mL (≈ 147 µM).
On to `O=C(COc1ccc(F)c(Cl)c1)N1CCCCCCC1`, for which the solubility (kinetic) is 32.8 µg/mL (≈ 109 µM). Compared with the last compound, the solubility kinetic is about 1.5-fold lower.
Regarding `O=c1[nH]c(SCc2ccc(Cl)cc2)nc2ccccc12`, the kinetic solubility turned out to be 0.8 µg/mL (≈ 2.64 µM).
`Cc1ccc(S(=O)(=O)N2CCN3CCCC3C2)cc1` (centres undefined) showed a solubility (kinetic) greater than 42.1 µg/mL.
`CC(=O)c1ccc(S(=O)(=O)N2CCCc3ccccc32)cc1`: the solubility (kinetic) stood at 24.5 µg/mL (≈ 77.7 µM).
Take `CSc1nccc(NC(=O)c2ccc(C(C)(C)C)cc2)n1`: the kinetic solubility stood at 4.2 µg/mL (≈ 13.9 µM).
`CC(Sc1ccccc1F)C(=O)Nc1cccc(S(=O)(=O)N2CCOCC2)c1` (centres undefined): the solubility (kinetic) was greater than 63.7 µg/mL.
For the compound `Cc1ccc(/C=N/N2CCOCC2)s1`, the kinetic solubility is greater than 31.5 µg/mL.
For the compound `Cl.O=[N+]([O-])c1cccc(CNCc2ccccc2)c1`, the kinetic solubility stood at 40.2 µg/mL.
Compound `COc1ccc(CNC(=O)N2CCN(c3ccccc3)CC2)cc1` displayed a solubility (kinetic) of 3.5 µg/mL (≈ 10.8 µM).
The figure for `CCCCCC(=O)NC(=S)Nc1ccc2oc(=O)ccc2c1` is 1.5 µg/mL (≈ 4.71 µM).
On to `Br.C=CCn1c(=N)n(CC(=O)c2ccccc2)c2ccccc21`, for which the solubility (kinetic) was greater than 55.8 µg/mL.
In turn, `O=S(=O)(NCCCc1ccccc1)c1ccc(Br)cc1` displayed a solubility (kinetic) of 10.7 µg/mL (≈ 30.2 µM).
The figure for `O=C(CN1CCOCC1)Nc1ccc([N+](=O)[O-])cc1Br` is 7.3 µg/mL (≈ 21.2 µM); for `CCN1CCN(C(=O)C23CCC(C)(C(=O)C2Br)C3(C)C)CC1` (centres undefined) it is greater than 55.7 µg/mL; for `O=c1c2cc(Cl)cc(Cl)c2nc2n1CCC2` it is 35 µg/mL (≈ 137 µM).
In turn, `O=C(Nc1cc(S(=O)(=O)N2CCCCC2)ccc1Cl)C1COc2ccccc2O1` (centres undefined) gave a kinetic solubility of 5.4 µg/mL (≈ 12.4 µM).
